Assay results published in patent publication US9163018B2, “Method of treatment of age-related macular degeneration (AMD)” (Prana Biotechnology Limited, priority 2006, dated 2015).

Legend:
[1] = system: primary cortical neuronal cultured cells; assay: Test compound cytotoxicity, MTS assay, primary cortical neuronal cultures; type: cell-based, mouse; settings: for Cytotox (% viable) Neuronal cells at 1 μM: 1 μM test compound; for Cytotox (% viable) Neuronal cells at 10 μM: 10 μM test compound
Method: Assay 2. Neurotoxicity Assays
Primary Cortical Neuronal Cultures
Media was then replaced with Neurobasal media (Invitrogen Life Technologies) and B27 supplements (Invitrogen Life Technologies). Cultures were maintained at 37° C. in 5% CO2. Prior to experimentation, the culture medium was replaced with Neurobasal media and B27 minus antioxidants (Invitrogen Life Technologies).
Assay 3. MTS Assay for Cell Viability
Cell viability is determined using the MTS assay. Culture medium is replaced with fresh neurobasal medium plus B27 supplements minus antioxidants. 1/10th volume MTS solution (Cell Titre 96 Aqueous One, Promega Corporation) and incubated at 37° C., 2 hrs. 200 microliter aliquots are measured with a spectrophotometer at 560 nm.
Assay 4. Assay for Test Compound Cytoxicity
Neuronal cortical cells were cultured for five days as per Assay 2 in NB media and B27 supplement.
On day six the test compounds were added to the neuronal cell cultures in NB media and B27 supplement minus antioxidants.
Test compounds were dissolved in 100% DMSO to a concentration of 2.5 mM (10 mM if excess compound was weighed out per vial—then diluted to 2.5 mM).
Test compounds were not added directly to cells, instead they were added to a 48 well ‘Drug Plate’ as comprised below:
The Drug Plate was incubated at 37° C. for 15 mins. 200 μl of each well was added in triplicate to the corresponding cell plate. The cell plate was incubated at 37 C, for 4 days.
On completion of the assay, 1/10 volume MTS was added per well of plate (ie 25 μl/250 μl). The plates were incubated at 37 C for 2 hrs, and then absorbance was read at 560 nm.

Aβ 1-42 = target: T1, Aβ 1-42 (Homo sapiens, UniProt P05067); assay: Fluorometric H2O2 assay (inhibition of Abeta H2O2 production); type: biochemical; settings: concentration required to inhibit 50% of Abeta H2O2 production; read-out: H2O2 IC50
T1 construct: The reaction solutions contained Aβ 1-42 at concentrations
T1 sequence (P05067 672-713 limits assumed): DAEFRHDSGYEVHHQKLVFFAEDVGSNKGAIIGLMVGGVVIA
Method: Assay 1. Fluorometric H2O2 Assay
A fluorometric assay was used to test the ability of a test compound to inhibit hydrogen peroxide generation by Aβ in the presence of copper based on dichlorofluoroscein diacetate (DCF; Molecular Probes, Eugene Oreg.). The DCF solution (5 mM) in 100% dimethyl sulphoxide (previously purged with argon for 2 hr at 20° C.) was deacetylated in the presence of 0.25M NaOH for 30 min and neutralized at pH 7.4 to a final concentration of 1 mM. Horseradish peroxidase (HRP) stock solution was prepared to 1 μM at pH 7.4. The reactions were carried out in PBS, pH 7.4 in a 96 well plate (total volume=250 μl/well). […] The reaction mixture was incubated at 37 C for 60 min. […] H2O2 concentration may be established by comparing fluorescence with the H2O2 standards, Inhibition of Aβ H2O2 production was assayed by including a given concentration of test compound(s) in the test wells.

[2] = system: Abeta in extract of post-mortem human AD brain tissue; assay: BAS: human brain amyloid solubilization assay; type: biochemical; settings: for BAS max effect: max effect across the concentration range, referenced to baseline PBS; for BAS concentration or concentration range at which an effect is observed: units printed in each cell
Method: Assay 5. Human Brain Amyloid Solubilization Assay
This assay was performed in order to assess the ability of a test compound to mobilise Aβ, as an example form of amyloid, from the insoluble to the soluble phase of an extract of tissue from post mortem human AD brain.
Up to 0.5 g of plaque-bearing cortex without meninges was homogenized using a DIAX 900 homogenizer (Hendolph and Co, Kelheim, Germany) or other suitable device for three 30-second periods at full speed in 2 ml of ice-cold phosphate-buffered saline, pH 7.4. To obtain the phosphate-buffered saline-extractable fraction, the homogenate was centrifuged at 100,000×g for 30 min and the supernatant removed. Alternatively, the tissue was freeze dried then pulverized to form a powder which was then weighed out into aliquots for extraction as above. Supernatant, either freeze-dried and resuspended or in unconcentrated form, was dissolved in 200 μl of Tris-Tricine sodium dodecyl sulfate (SDS) sample buffer pH 8.3 containing 8% SDS, 10% 2-mercaptoethanol. Aliquots (10 μl) were then boiled for 10 minutes before SDS-polyacrylamide gel electrophoresis. The insoluble fraction of the cortical samples was obtained by resuspending the initial pelleted sample in 1 ml of phosphate-buffered saline, A 50-μl aliquot of this suspension was then boiled in […] of sample buffer as above.
Tris-Tricine polyacrylamide gel electrophoresis was performed by loading appropriately diluted samples on to 10% to 20% gradient gels (Novex, San Diego, Calif.) followed by transfer on to 0.2-μm nitrocellulose membrane (Bio-Rad, Hercules, Calif.). Aβ was detected by using monoclonal antibody W02, which detects residues 5 through 8, […] (or another suitable antibody) in conjunction with horseradish peroxidase-conjugated rabbit anti-mouse IgG (Dako, Denmark), and visualized by using enhanced chemiluminescence (eg ECL; Amersham Life Science, Buckinghamshire, UK). Each gel included three lanes containing 0.5, 1, and 2 ng of synthetic Aβ40 (Keck Laboratory, Yale University, New Haven, Conn.) as reference standards.
Blot films were scanned by using a suitable imaging system such as the UVP gel documentation system, and densitometry performed using suitable software, eg UVP Labworks. The dynamic range of the film/scanner was determined by using a step tablet (No. 911ST600, Kodak, Rochester N.Y.), a calibrated film exposed by the manufacturer to provided steps of known increasing intensity. The quantifiable range of signal intensity for densitometric analysis of the mono- and dimeric Aβ bands was based on the comparison with a curve obtained by scanning and densitometry of the step tablet.
All samples were analyzed at least twice, and gel loadings and dilutions were adjusted to fit within the quantifiable region of the standard curve. The proportion of ‘soluble’ to ‘insoluble’ Aβ may be used to determine the efficiency of extraction of a test compound compared with the efficiency of a known compound. The insoluble Aβ being comprised of the pelletable fraction derived from the insoluble amyloid plaque from the above cortical samples and the soluble fraction comprising monomeric and/or oligomeric soluble Aβ.

| SMILES | Cytotox (% viable) Neuronal cells at 1 μM [1] | Cytotox (% viable) Neuronal cells at 10 μM [1] | IC50 (Aβ 1-42) [nM] | BAS max effect [2] [%] | BAS concentration or concentration range at which an effect is observed [2] |
| --- | --- | --- | --- | --- | --- |
| Cc1cc(C)c2cccnc2c1O [PB 59] | 86% | 85% | 700 | 293 |  |
| Oc1c(I)cc(-c2ccccc2C(F)(F)F)c2cccnc12 [PB 860] | 91% | 90% | 790 | 160 |  |
| Oc1ccccc1-c1cc(Cl)c2cccnc2c1O [PB 947] | 100% | 70% | 1140 | 244 |  |
| Oc1c(Br)cc(-c2cc(F)cc(F)c2)c2cccnc12 [PB 853] | Neuronal cells: 95, 95% | Neuronal cells: 95, 95% | 770 | 221 |  |
| NCCNC(=O)c1ccc2cccc(O)c2n1 [PB 957] | 106% | 96% | > 10000 | 190 | 1 μM, 100 μM |
| CN1CCCN(C)CCN(C)CCCN(C)CC1 [PB 933] |  | Neuronal cells: 127% (at 10 μM) | 110 | 279 |  |
| O/N=C/c1ccc2cccc(O)c2n1 [PB 969] | 100% | 95% | 540 | 385 |  |
| O=C(CNC(=O)c1cc(O)c2cccc(O)c2n1)NCc1ccccn1 [PB 988] | Neuronal cells: 93, 93% | Neuronal cells: 93, 93% | > 10000 | 137 |  |
| FC(F)(F)CSc1cccc2cccnc12 [PB 913] | 100% | 95% | 990 | 450 |  |
| O=C(NCCc1cnc[nH]1)c1cc(O)c2cccc(O)c2n1 [PB 954] | Neuronal cells: 100, 100% | Neuronal cells: 100, 100% | 120 | 134 | 1 µM |
| Oc1c(-c2ccccc2C(F)(F)F)cc(Cl)c2cccnc12 [PB 864] | 96% | 93% | 770 | 208 |  |
| Oc1c(-c2ccccc2)cc(-c2ccccc2)c2cccnc12 [PB 809] | 97% | 26% | < 1800 | 146 |  |
| O=C(Nc1nccs1)c1ccc2cccc(O)c2n1 [PB 952] | Neuronal cells: 100, 100% | Neuronal cells: 100, 100% | 270 | 268 |  |
| COc1cccc(-c2cc(Cl)c3cccnc3c2O)c1 [PB 810] | 83% | 71% | < 700 | 184 |  |
| COc1ccc(-c2cc(Cl)c3cccnc3c2O)cc1 [PB 814] | 97% | 31% | < 1100 | 209 |  |
| Oc1c(Br)cc(-c2ccccc2)c2cccnc12 [PB 806] | 100% | 97% | < 900 | 311 |  |
| O=C(NCCc1cnc[nH]1)c1ccc2cccc(O)c2n1 [PB 948] | 100, 100% | 100, 100% | 150 | 576 |  |
| O=C(CNC(=O)c1cc(O)c2cccc(O)c2n1)NCCc1c[nH]cn1 [PB 987] | 98% | 89% | 1800 | 393 |  |
| Cc1ccc(-c2ccc(C)cn2)nc1 [PB 896] |  | Neuronal cells: 86% (at 10 uM) | 150 | 358 |  |
| Cc1ccccc1-c1cc(-c2ccccc2C)c2cccnc2c1O [PB 852] | 93% | 34% | 2100 | 220 |  |
| CN(c1ccc2cccc(O)c2n1)c1ccc2cccc(O)c2n1 [PB 56] | 80% | 25% | 250 | 311 |  |
| O=C(NCCc1ccccn1)c1ccc2cccc(O)c2n1 [PB 950] | 95% | 93% | 150 | 741 |  |
| COc1ccccc1-c1cc(I)c(O)c2ncccc12 [PB 863] | 91% | 35% | < 730 | 386 |  |
| COc1ccccc1-c1cc(-c2ccccc2OC)c2cccnc2c1O [PB 862] | 100% | 52% | < 770 | 256 |  |
| Oc1cccc2ccc(CNCc3ccccn3)nc12 [PB 991] | 96% | 67% | 470 | 222 |  |
| Cc1ccccc1-c1cc(Cl)c2cccnc2c1O [PB 854] | Neuronal cells: 100, 100% | Neuronal cells: 100, 100% | 780 | 520 |  |
| CN(CCc1ccccn1)Cc1ccc2cccc(O)c2n1 [PB 990] | 97% | 57% | 400 | 183 |  |
| O=C(NCc1ccccn1)c1ccc2cccc(O)c2n1 [PB 949] | 96% | 85% | 430 | 201 |  |
| Oc1ccc(/C=C/c2ccc3cccc(O)c3n2)cc1 [PB 89] | 100% | 75% | 2500 | 233 |  |
